The values that follow come from patent publication US12668594B2, “TYK2 inhibitors and uses thereof” (Sudo Biosciences Limited, priority 2020, dated 2026).

Some results are limits rather than exact numbers.

The target of assay [1] is T1, TYK2 (Homo sapiens, UniProt P29597). As to the kind of experiment: HEK-Blue IL-23 reporter assay (SEAP) for TYK2 pseudokinase inhibition. In kind it is cell-based. Particulars: HEK-Blue IL-23 cells, 10 ng/mL human recombinant IL-23, SEAP reporter; read-out: IL23 IC50. Also on record: HEK-Blue™ IL-23 and IFNα/β cells with a stably-integrated cytokine receptor and STAT3 or STAT1; host or cells: HEK-Blue IL-23 / HEK-Blue IFNα/β cells (HEK293 background). The procedure, abridged:
(§1)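 HEK-Blue cells carrying cytokine receptor and STAT3 or STAT1 SEAP reporter, pretreated 60 min with compound, then stimulated with 10 ng/mL IL-23 (22–24 h) or 1 ng/mL IFNα (16–18 h). SEAP read with QUANTI-Blue; IC50 by non-linear regression versus no-inhibitor and unstimulated controls.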

A further assay has as its system IL-2. As to the kind of experiment: Selectivity assay (SEAP) IL-2 reporter cells. The format is cell-based. Conditions: Homo sapiens, IL-2 reporter cells on HEK293 background, read-out: Selectivity assays (SEAP) nM or E-Max % IL-2.
The target in the next assay is T2, TYK2-JH1 (Homo sapiens, UniProt P29597).
T2 construct: recombinant purified His or GST-tagged catalytic domain for each enzyme; made in house
T2 sequence (P29597 897-1176 limits assumed): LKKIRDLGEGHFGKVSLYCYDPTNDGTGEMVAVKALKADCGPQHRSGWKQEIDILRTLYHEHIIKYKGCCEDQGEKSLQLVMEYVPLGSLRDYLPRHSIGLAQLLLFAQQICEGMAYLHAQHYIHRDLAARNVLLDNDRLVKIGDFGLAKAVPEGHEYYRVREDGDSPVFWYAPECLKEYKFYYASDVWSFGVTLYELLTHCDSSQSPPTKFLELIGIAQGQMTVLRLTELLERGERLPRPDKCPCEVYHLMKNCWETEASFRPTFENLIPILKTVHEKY
The experiment in a line: HTRF-based selectivity assay, TYK2 catalytic domain. The format is biochemical. Particulars: kinase domain (JH1), ATP 20 μM. As to the method: (§2) The ability of compounds to inhibit the activity of JAK1, JAK2, JAK3 and TYK2 is measured using a recombinant purified His or GST-tagged catalytic domain for each enzyme (JAK1, JAK2 and TYK2 are generated in-house; JAK3 was purchased from Carna biosciences, Cat #08-046) in an HTRF format biochemical assay. The reactions employs a commercial peptide substrate from Cisbio (Cat #62TK0PEC). The basic assay protocol is as follows: first, 2.5 µL of diluted compounds (4×) in DMSO are dispensed into a 384-well Optiplate. Next, 2.5 μL of enzyme (final concentrations for enzymes are: TYK2-700 ng/mL, JAK1-80.6 ng/mL, JAK2-2.1 ng/mL and JAK3-171.8 ng/mL) is added and incubated at RT for 5-20 min. Finally, 5 μl of mixture of 2×ATP [Final concentration 20 μM for TYK2, 21.43 μM for JAK1, 14.7 μM for JAK2 and 2.12 μM for JAK3]+2× Substrate [Final concentration 217 nM for TYK2, 454.7 nM for JAK1, 200 nM for JAK2 and 257.4 nM for JAK3] is added to 384 well Optiplate. Composition of Kinase assay buffer used in the assay is as follows: HEPES 50 mM, EGTA 1 mM, MgCl2 10 mM, DTT2 mM, Tween-20 0.010 and water. Then the plates are shaken and then incubated at 26.5° C. for 60 min. At the end of the incubation, 10 μL of mixture of 2× detection mix [(EU3+Cryptate (1×)+Streptavidin-XL665 (final concentration: 62.5 nM) (HTRF KinEASE-TK kit Cat #62TK0PEC)] is added to the assay plate, shaken and incubated at 26.5° C. for 60 min. Plates are then read on a Perkin Elmer Envision for HTRF signal (665 nm reading/615 nm reading). After normalization to untreated controls, the percent inhibition of the HTRF signal at each compound concentration is calculated. The plot of percent inhibition versus the log of compound concentration is fit with a 4-parameter dose response equation to calculate IC50 values.

A further assay concerns the target T3, JAK1-JH1 (Homo sapiens, UniProt P23458).
T3 construct: recombinant purified His or GST-tagged catalytic domain for each enzyme; made in house
The experiment in a line: HTRF-based selectivity assay, JAK1 catalytic domain. In kind it is biochemical. Particulars: kinase domain (JH1), ATP 21.43 μM. As to the method:
as §2
A general note: In TR-FRET formats the signal depends on donor and acceptor labels being close together.

The next assay deals with T4, JAK2-JH1 (Homo sapiens, UniProt O60674).
T4 construct: recombinant purified His or GST-tagged catalytic domain for each enzyme; made in house
T4 sequence (O60674 849-1124 limits assumed): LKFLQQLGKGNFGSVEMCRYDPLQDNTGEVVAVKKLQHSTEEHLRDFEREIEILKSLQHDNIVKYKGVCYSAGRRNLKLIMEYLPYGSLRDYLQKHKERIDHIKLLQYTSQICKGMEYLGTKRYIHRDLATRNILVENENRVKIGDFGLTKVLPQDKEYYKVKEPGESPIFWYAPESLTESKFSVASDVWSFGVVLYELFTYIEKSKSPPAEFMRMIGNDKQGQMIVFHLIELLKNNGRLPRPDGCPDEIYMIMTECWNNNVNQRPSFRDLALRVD
As to the kind of experiment: HTRF-based selectivity assay, JAK2 catalytic domain. The format is biochemical. Conditions: kinase domain (JH1), ATP 14.7 μM. As to the method: as §2

The target in the next assay is T5, JAK3-JH1 (Homo sapiens, UniProt P52333).
T5 construct: recombinant purified His or GST-tagged catalytic domain for each enzyme; purchased Carna biosciences 08-046
T5 sequence (P52333 822-1111 limits assumed): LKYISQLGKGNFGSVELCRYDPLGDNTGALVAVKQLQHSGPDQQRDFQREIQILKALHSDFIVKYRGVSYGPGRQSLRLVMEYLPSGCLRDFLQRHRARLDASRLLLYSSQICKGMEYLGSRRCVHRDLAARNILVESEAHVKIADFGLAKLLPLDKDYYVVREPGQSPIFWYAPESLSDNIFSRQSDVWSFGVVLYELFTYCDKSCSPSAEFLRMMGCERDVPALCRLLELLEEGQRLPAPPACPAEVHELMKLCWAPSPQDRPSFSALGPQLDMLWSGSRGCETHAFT
As to the kind of experiment: HTRF-based selectivity assay, JAK3 catalytic domain. The format is biochemical. Conditions: kinase domain (JH1), ATP 2.12 μM. As to the method: as §2

Assay [2] addresses T1, TYK2. The experiment in a line: HEK-Blue IFNα/β reporter assay (SEAP) for TYK2 pseudokinase inhibition. The format is cell-based. Conditions: HEK-Blue IFNα/β cells, 1 ng/mL human recombinant IFNα. In short, it runs like this:
as §1

The next assay has as its system IFN-γ. The experiment in a line: Selectivity assay (SEAP) IFN-γ reporter cells. In kind it is cell-based. Conditions: Homo sapiens, IFN-γ reporter cells on HEK293 background, read-out: Selectivity assays (SEAP) nM or E-Max % IFN-γ.

T1 sequence (P29597 whole entry): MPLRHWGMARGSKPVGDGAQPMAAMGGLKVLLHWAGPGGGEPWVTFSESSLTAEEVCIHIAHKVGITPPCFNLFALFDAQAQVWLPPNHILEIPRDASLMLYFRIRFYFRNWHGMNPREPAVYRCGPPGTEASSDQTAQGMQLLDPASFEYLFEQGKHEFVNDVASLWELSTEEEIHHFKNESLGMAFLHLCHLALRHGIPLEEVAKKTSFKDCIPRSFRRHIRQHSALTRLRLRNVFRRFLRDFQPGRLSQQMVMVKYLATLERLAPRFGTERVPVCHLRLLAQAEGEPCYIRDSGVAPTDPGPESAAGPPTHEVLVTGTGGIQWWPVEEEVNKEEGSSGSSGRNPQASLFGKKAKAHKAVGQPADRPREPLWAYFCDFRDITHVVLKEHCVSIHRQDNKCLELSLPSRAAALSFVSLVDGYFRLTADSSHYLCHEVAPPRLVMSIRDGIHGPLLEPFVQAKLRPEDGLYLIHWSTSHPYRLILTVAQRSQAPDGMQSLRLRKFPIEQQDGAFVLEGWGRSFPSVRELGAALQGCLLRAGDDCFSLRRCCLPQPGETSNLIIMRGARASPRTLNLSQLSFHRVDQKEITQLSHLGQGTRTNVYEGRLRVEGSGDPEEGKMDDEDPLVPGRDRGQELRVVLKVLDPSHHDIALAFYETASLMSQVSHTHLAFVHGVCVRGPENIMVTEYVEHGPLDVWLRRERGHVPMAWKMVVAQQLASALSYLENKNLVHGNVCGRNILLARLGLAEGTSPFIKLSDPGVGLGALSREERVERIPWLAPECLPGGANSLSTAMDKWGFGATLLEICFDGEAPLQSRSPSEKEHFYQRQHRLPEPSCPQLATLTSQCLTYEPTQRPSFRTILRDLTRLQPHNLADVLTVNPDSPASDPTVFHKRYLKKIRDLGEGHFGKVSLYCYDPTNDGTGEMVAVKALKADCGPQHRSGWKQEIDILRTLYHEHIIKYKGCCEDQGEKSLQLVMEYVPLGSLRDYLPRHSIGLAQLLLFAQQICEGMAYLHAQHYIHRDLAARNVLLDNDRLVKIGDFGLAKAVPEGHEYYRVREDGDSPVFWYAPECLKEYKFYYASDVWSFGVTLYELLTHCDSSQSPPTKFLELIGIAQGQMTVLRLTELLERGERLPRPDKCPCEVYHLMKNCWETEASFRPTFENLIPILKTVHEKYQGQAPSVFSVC
T3 sequence (P23458 875-1153 limits assumed): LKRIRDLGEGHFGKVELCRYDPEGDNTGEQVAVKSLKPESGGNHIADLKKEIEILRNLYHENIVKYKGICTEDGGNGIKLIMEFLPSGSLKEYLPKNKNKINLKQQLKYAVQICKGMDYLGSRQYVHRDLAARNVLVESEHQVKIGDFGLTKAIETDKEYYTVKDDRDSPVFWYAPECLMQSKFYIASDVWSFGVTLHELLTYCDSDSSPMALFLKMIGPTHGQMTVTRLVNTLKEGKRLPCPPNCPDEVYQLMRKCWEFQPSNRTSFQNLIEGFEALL

For the compound `O=c1[nH]n(-c2ccccc2)c2cc(Nc3ccc(F)cn3)ncc12` [Compound I-2, 6-((5-fluoropyridin-2-yl)amino)-1-phenyl-1,2-dihydro-3H-pyrazolo[4,3-c]pyridin-3-one], the IC50 is less than 10 µM at TYK2 [1]; greater than 90000 nM in the assay with IL-2; 30 to 90 µM against TYK2-JH1; 30 to 90 µM against JAK1-JH1; 10 to 30 µM against JAK2-JH1; less than 10 µM against JAK3-JH1. Further, the IC50 on TYK2 [2] was less than 10 µM; with IFN-γ it was 30000 to 90000 nM.

`COc1cccc(-n2[nH]c(=O)c3cnc(Nc4cc(C)nc(C)n4)cc32)c1F` [Compound I-37, 6-((2,6-dimethylpyrimidin-4-yl)amino)-1-(2-fluoro-3-methoxyphenyl)-1,2-dihydro-3H-pyrazolo[4,3-c]pyridin-3-one]: the IC50 was less than 10 µM at TYK2 [1]; greater than 90000 nM with IL-2; greater than 90 µM on TYK2-JH1; greater than 90 µM at JAK1-JH1; greater than 90 µM against JAK2-JH1; greater than 90 µM on JAK3-JH1. Besides, the IC50 at TYK2 [2] was less than 10 µM; in the assay with IFN-γ, greater than 90000 nM.

On to `Cc1ccccc1-n1[nH]c(=O)c2cnc(NC(=O)C3CC3)cc21` [Compound I-107, N-(3-oxo-1-(o-tolyl)-2,3-dihydro-1H-pyrazolo[4,3-c]pyridin-6-yl)cyclopropanecarboxamide], for which the IC50 at TYK2 [1] and on TYK2 [2] was less than 10 µM throughout.

Consider `CCc1ccccc1-n1[nH]c(=O)c2cnc(Nc3cc(C)nc(C)n3)cc21` [Compound I-108, 6-((2,6-dimethylpyrimidin-4-yl)amino)-1-(2-ethylphenyl)-1,2-dihydro-3H-pyrazolo[4,3-c]pyridin-3-one], for which the IC50 on TYK2 [1] was less than 10 µM; on TYK2 [2] it was 10 to 30 µM.

On to `CCc1ccccc1-n1[nH]c(=O)c2cnc(Nc3ccc(F)cn3)cc21` [Compound I-109, 1-(2-ethylphenyl)-6-((5-fluoropyridin-2-yl)amino)-1,2-dihydro-3H-pyrazolo[4,3-c]pyridin-3-one], for which the IC50 on TYK2 [1] and at TYK2 [2] was greater than 90 µM in each case.

`CCc1ccccc1-n1[nH]c(=O)c2cnc(NC(=O)C3CC3)cc21` [Compound I-110, N-(1-(2-ethylphenyl)-3-oxo-2,3-dihydro-1H-pyrazolo[4,3-c]pyridin-6-yl)cyclopropanecarboxamide]: the IC50 on TYK2 [1] and at TYK2 [2] was greater than 90 µM each time.

`Cc1cc(Nc2cc3c(cn2)c(=O)[nH]n3-c2ccccc2F)nc(C)n1` [Compound I-111, 6-((2,6-dimethylpyrimidin-4-yl)amino)-1-(2-fluorophenyl)-1,2-dihydro-3H-pyrazolo[4,3-c]pyridin-3-one]: the IC50 on TYK2 [1] and on TYK2 [2] was less than 10 µM in each case.

As for `O=c1[nH]n(-c2ccccc2F)c2cc(Nc3ccc(F)cn3)ncc12` [Compound I-112, 1-(2-fluorophenyl)-6-((5-fluoropyridin-2-yl)amino)-1,2-dihydro-3H-pyrazolo[4,3-c]pyridin-3-one], the IC50 on TYK2 [1] and on TYK2 [2] was less than 10 µM each time.

For the compound `Cc1cc(Nc2cc3c(cn2)c(=O)[nH]n3-c2cccc(F)c2F)nc(C)n1` [Compound I-113, 1-(2,3-difluorophenyl)-6-((2,6-dimethylpyrimidin-4-yl)amino)-1,2-dihydro-3H-pyrazolo[4,3-c]pyridin-3-one], the IC50 at TYK2 [1] and on TYK2 [2] was less than 10 µM each time.

Take `Cc1cc(Nc2cc3c(cn2)c(=O)[nH]n3C2CCCC2)nc(C)n1` [Compound I-114, 1-cyclopentyl-6-((2,6-dimethylpyrimidin-4-yl)amino)-1,2-dihydro-3H-pyrazolo[4,3-c]pyridin-3-one]: the IC50 on TYK2 [1] and on TYK2 [2] was less than 10 µM in each case.

As to `O=c1[nH]n(C2CCCC2)c2cc(Nc3ccc(F)cn3)ncc12` [Compound I-115, 1-cyclopentyl-6-((5-fluoropyridin-2-yl)amino)-1,2-dihydro-3H-pyrazolo[4,3-c]pyridin-3-one], the IC50 at TYK2 [1] and at TYK2 [2] was less than 10 µM each time.

Turning to `COc1cccc(-n2[nH]c(=O)c3c(N)nc(Nc4cc(C)nc(C)n4)cc32)c1` [Compound I-116, 4-amino-6-((2,6-dimethylpyrimidin-4-yl)amino)-1-(3-methoxyphenyl)-1,2-dihydro-3H-pyrazolo[4,3-c]pyridin-3-one], the results for the IC50 at TYK2 [1] and at TYK2 [2] were less than 10 µM and 30 to 90 µM, respectively.

Consider `Cc1cc(Nc2cc3c(cn2)c(=O)[nH]n3-c2cccc(CO)c2)nc(C)n1` [Compound I-117, 6-((2,6-dimethylpyrimidin-4-yl)amino)-1-(3-(hydroxymethyl)phenyl)-1,2-dihydro-3H-pyrazolo[4,3-c]pyridin-3-one], for which the IC50 on TYK2 [1] is less than 10 µM; on TYK2 [2], 10 to 30 µM.

On to `Cc1cc(Nc2cc3c(cn2)c(=O)[nH]n3-c2cccc(C(=O)NCc3ccccn3)c2)nc(C)n1` [Compound I-118, 3-(6-((2,6-dimethylpyrimidin-4-yl)amino)-3-oxo-2,3-dihydro-1H-pyrazolo[4,3-c]pyridin-1-yl)-N-(pyridin-2-ylmethyl)benzamide], for which the results for the IC50 at TYK2 [1] and on TYK2 [2] were less than 10 µM and greater than 90 µM, respectively.

Consider `Cc1cc(Nc2cc3c(cn2)c(=O)[nH]n3-c2ccc3cn(C)nc3c2)nc(C)n1` [Compound I-121, 6-((2,6-dimethylpyrimidin-4-yl)amino)-1-(2-methyl-2H-indazol-6-yl)-1,2-dihydro-3H-pyrazolo[4,3-c]pyridin-3-one], for which the IC50 at TYK2 [1] and on TYK2 [2] was less than 10 µM each time.

In the case of `Cn1cc2ccc(-n3[nH]c(=O)c4cnc(Nc5ccc(F)cn5)cc43)cc2n1` [Compound I-122, 6-((5-fluoropyridin-2-yl)amino)-1-(2-methyl-2H-indazol-6-yl)-1,2-dihydro-3H-pyrazolo[4,3-c]pyridin-3-one], the IC50 on TYK2 [1] and on TYK2 [2] was less than 10 µM each time.

On to `CNC(=O)Nc1cc2c(cn1)c(=O)[nH]n2-c1ccccc1` [Compound I-125, 1-methyl-3-(3-oxo-1-phenyl-2,3-dihydro-1H-pyrazolo[4,3-c]pyridin-6-yl)urea], for which the IC50 at TYK2 [1] is less than 10 µM; on TYK2 [2] it was 30 to 90 µM.

Consider `COC(=O)Nc1cc2c(cn1)c(=O)[nH]n2-c1ccccc1` [Compound I-126, methyl (3-oxo-1-phenyl-2,3-dihydro-1H-pyrazolo[4,3-c]pyridin-6-yl)carbamate], for which the IC50 is less than 10 µM at TYK2 [1] and greater than 90 µM at TYK2 [2].
